In US20230119479A1, “A HISTONE DEACETYLASE INHIBITOR HAVING A NITROGEN-CONTAINING AROMATIC HETEROCYCLYL GROUP” (SHIONOGI & CO., LTD., priority 2019, published 2023):
pIC50: −log10 of the molar value. Like-named read-outs stand apart in the source and are kept apart here.

Biological target: T1, HDAC2 Human recombinant C-terminal FLAG-tag (Homo sapiens, UniProt Q92769)
T1 construct: FLAG (C); purchased BPS Bioscience 50052
Test: Measurement of HDAC2 enzyme inhibitory activity (HTRF)
Type: biochemical
Conditions: recombinant HDAC2, H3K9ac peptide
Method: Test Example 1: Measurement of HDAC2 Enzyme Inhibitory Activity
The HDAC2 enzyme inhibitory activity was measured by the method described in the following test example.
To each well of a 384-well plate (Corning, 4514), DMSO solution of the test compound was dispensed at 50 nL/well from a final concentration of 99 μM to 8 points (n=2) in the 3-fold dilution series using Echo555 (Beckman Coulter). 2.5 μl of 0.005 mg/mL recombinant enzyme HDAC2 (HDAC2 Human recombinant C-terminal FLAG-tag, BPS Bioscience, 50052) was added to each well, 2.5 μl of 0.6 μM H3K9ac peptide (Lys(Ac)9-Histone H3 (1-21)-GGK(Biotin), AnaSpec, 64361) was added, mixed, and reacted in a wet box at room temperature for 3 hours. 50 mM Tris HCL pH8.0, 137 mM sodium chloride, 2.7 mM potassium chloride, 1 mM magnesium chloride, 0.01% Tween20, and 0.1% BSA which were diluted with ultrapure water were used as a reaction buffer at this time. After the reaction, 5 μL of 10 μM SAHA (suberoylanilide hydroxamic acid) as a reaction terminator and the 5 μL of a mixture of 2.5 ng of H3K9me0 antibody (ActiveMotif, 61399) labeled in-house with europium cryptate (Cisbio, 65EUSABA) and 125 nM streptavidin-XL665 (Cisbio, 610SAXLA) as an HTRF (time-resolved fluorescence) reagent were added to each well, mixed, and allowed to stand in a wet box at room temperature for reaction. A detection buffer used at this time was 50 mM Tris HCL pH 8.0, 0.8 M potassium fluoride, and 0.1% BSA which were diluted with ultrapure water. After reacting for 2 hours or more, HTRF was measured using a multi-plate reader such as SpectraMax Paradigm (MOLECULAR DEVICE) or RUBYstar (BMG LABTECH). Ratio (665 nm/615-620 nm×10000) was calculated from the fluorescence values of two wavelengths, 615-620 nm and 665 nm, which were excited at 320-340 nm, and the energy transition was obtained.

[1] = 3 hours room temperature, read-out: HDAC2 IC50

T1 sequence (Q92769 whole entry): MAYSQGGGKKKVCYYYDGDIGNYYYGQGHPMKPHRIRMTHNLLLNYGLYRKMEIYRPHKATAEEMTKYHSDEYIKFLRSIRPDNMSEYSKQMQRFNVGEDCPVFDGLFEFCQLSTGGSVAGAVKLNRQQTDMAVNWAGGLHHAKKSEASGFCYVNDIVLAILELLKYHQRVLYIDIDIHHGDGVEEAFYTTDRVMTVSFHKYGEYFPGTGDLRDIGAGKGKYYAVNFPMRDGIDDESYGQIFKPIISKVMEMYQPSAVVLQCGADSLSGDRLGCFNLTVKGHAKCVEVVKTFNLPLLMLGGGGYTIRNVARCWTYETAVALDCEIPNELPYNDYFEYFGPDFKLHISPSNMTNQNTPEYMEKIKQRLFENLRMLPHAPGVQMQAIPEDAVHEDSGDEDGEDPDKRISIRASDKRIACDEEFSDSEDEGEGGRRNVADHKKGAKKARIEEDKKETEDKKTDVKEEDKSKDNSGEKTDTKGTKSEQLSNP

Compound | pIC50 [1] | pIC50 (read-out: IC50 (HDAC2))
CC(C)c1ccc(C(=O)Nc2cc(-c3cnn(C)c3)ccc2N)nc1 [Compound I-153] | 6.68 | –
Cc1ccc(C(=O)Nc2cc(-c3cnn(C)c3)ccc2N)nn1 [Compound I-257] | 6.24 | –
Nc1ccc(-c2ccc(F)nc2)cc1NC(=O)c1cnc(OCC(F)F)cn1 [Compound I-151] | 6.66 | –
Nc1ccc(-c2ccc(F)nc2)cc1NC(=O)c1cc(F)ccn1 [Compound I-186] | 6.31 | –
COc1cnc(C(=O)Nc2cc(-c3ccc(F)nc3)ccc2N)cn1 [Compound I-120] | 6.62 | –
Cn1cc(-c2cnc(C(=O)Nc3nc(-c4ccco4)ccc3N)cn2)cn1 [Compound I-026] | 6.49 | –
CN(C)c1cnc(C(=O)Nc2nc(-c3ccccc3)ccc2N)cn1 [Compound I-213] | 6.51 | –
Cn1cc(-c2ccc(N)c(NC(=O)c3ccc(N4CCCC4)nn3)c2)cn1 [Compound I-272] | 6.64 | –
Nc1ccc(-c2ccc(F)nc2)cc1NC(=O)c1ccc(C2CCC2)cn1 [Compound I-243] | 6.59 | –
Cn1cc(-c2ccc(C(=O)Nc3nc(-c4cncs4)ccc3N)nc2)cn1 [Compound I-061] | 6.68 | –
Nc1ccc(-c2ccc(F)nc2)cc1NC(=O)c1cnc(Cl)cn1 [Compound I-239] | 6.64 | –
Cn1cccc1-c1cc(C(=O)Nc2cc(-c3cncs3)ccc2N)no1 [Compound I-199] | 6.70 | –
CCCCc1ccc(C(=O)Nc2cc(-c3cncs3)ccc2N)nc1 [Compound I-057] | 6.49 | –
Cn1cc(-c2cnc(C(=O)Nc3nc(-c4ccccc4)ccc3N)cn2)cn1 [Compound I-039] | 6.38 | –
Nc1ccc(-c2ccc(F)nc2)cc1NC(=O)c1cnccn1 [Compound I-114] | 6.59 | –
Nc1ccc(-c2cncs2)cc1NC(=O)c1cc2c(cn1)OC(F)(F)O2 [Compound I-074] | 6.57 | –
CN(C)c1cnc(C(=O)Nc2nc(-n3cccc3)ccc2N)cn1 [Compound I-212] | 6.08 | –
Cn1cc(-c2ccc(N)c(NC(=O)c3cnc(OC(F)F)cn3)c2)cn1 [Compound I-146] | 6.42 | –
Nc1ccc(-c2ccccc2)nc1NC(=O)c1ccc2c(n1)OCO2 [Compound I-217] | 6.47 | –
C=Cc1ccc(C(=O)Nc2cc(-c3ccc(F)nc3)ccc2N)nc1 [Compound I-131] | 6.74 | –
CCOc1ccc(C(=O)Nc2cc(-c3ccc(F)nc3)ccc2N)nc1 [Compound I-164] | 6.68 | –

Compound | pIC50 [1] | pIC50 (read-out: IC50 (HDAC2))
CS(=O)(=O)Nc1cnc(C(=O)Nc2cc(-c3ccc(F)nc3)ccc2N)cn1 [Compound I-311] | – | 6.82
Cn1cc(-c2ccc(N)c(NC(=O)c3ccc(Cl)nn3)c2)cn1 [Compound I-270] | 6.01 | –
CC(=O)Nc1ccc(C(=O)Nc2nc(-n3cccc3)ccc2N)nc1 [Compound I-305] | – | 6.89
Nc1ccc(-c2cncs2)cc1NC(=O)c1cc(Cl)c(Cl)cn1 [Compound I-072] | 6.32 | –
Cc1ccc(C(=O)Nc2cc(-c3ccc(F)nc3)ccc2N)nn1 [Compound I-256] | 6.59 | –
COCc1ccc(C(=O)Nc2cc(-c3cnn(C)c3)ccc2N)nc1 [Compound I-207] | 6.60 | –
CC(C)Oc1ccc(C(=O)Nc2cc(-c3ccc(F)nc3)ccc2N)nn1 [Compound I-289] | 6.70 | –
Cc1ccc(C(=O)Nc2cc(-c3ccc(F)nc3)ccc2N)nc1F [Compound I-210] | 6.72 | –
Cc1cnc(C(=O)Nc2nc(-n3cccc3)ccc2N)cn1 [Compound I-171] | 6.37 | –
Cn1cc(-c2ccc(C(=O)Nc3cc(-c4cnn(C)c4)ccc3N)nc2)cn1 [Compound I-037] | 6.74 | –
Nc1ccc(-c2ccc(F)nc2)cc1NC(=O)c1ccccn1 [Compound I-113] | 6.49 | –
CN(C)c1cnc(C(=O)Nc2nc(-c3ccc(F)nc3)ccc2N)cn1 [Compound I-247] | 6.42 | –
CCc1ccc(C(=O)Nc2cc(-c3cnn(C)c3)ccc2N)nc1 [Compound I-175] | 6.77 | –
Cc1ccc(C(=O)Nc2cc(-c3cnn(C)c3)ccc2N)nc1 [Compound I-155] | 6.66 | –
CCc1cnc(C(=O)Nc2nc(-n3cccc3)ccc2N)cn1 [Compound I-261] | 6.59 | –
Cn1cc(-c2ccc(C(=O)Nc3cc(-n4cccn4)ccc3N)nc2)cn1 [Compound I-063] | 6.57 | –
CCC(=O)Nc1ccc(C(=O)Nc2cc(-c3cnn(C)c3)ccc2N)nc1 [Compound I-307] | – | 7.11
Nc1ccc(-n2cccc2)nc1NC(=O)c1ccc2c(n1)OCC(=O)N2 [Compound I-234] | 6.62 | –
CCNc1cnc(C(=O)Nc2cc(-c3cnn(C)c3)ccc2N)cn1 [Compound I-304] | – | 7.15
Cn1cc(-c2ccc(N)c(NC(=O)c3ccc(N4CCOCC4)nn3)c2)cn1 [Compound I-275] | 6.59 | –

Second part, the compound after the results:

pIC50 [1] | pIC50 (read-out: IC50 (HDAC2)) | Compound
7.22 | – | Nc1ccc(-c2ccc(F)nc2)cc1NC(=O)c1cnc(N2CC3(CCO3)C2)cn1 [Compound I-235]
7.00 | – | Nc1ccc(-c2cncs2)cc1NC(=O)c1cnc(OCF)cn1 [Compound I-100]
7.00 | – | Nc1ccc(-c2ccc(F)nc2)cc1NC(=O)c1cnc(N2CC(Cl)(CCO)C2)cn1 [Compound I-224]
6.82 | – | Cc1cnc(C(=O)Nc2cc(-c3ccc(F)nc3)ccc2N)c(F)c1 [Compound I-209]
6.96 | – | Cc1nnc(-c2ccc(C(=O)Nc3cc(-c4ccc(F)nc4)ccc3N)nc2)o1 [Compound I-133]
6.85 | – | Nc1ccc(-c2ccc(F)nc2)cc1NC(=O)c1cc2ccncc2cn1 [Compound I-068]
7.10 | – | CC(C)(O)C1CN(c2cnc(C(=O)Nc3cc(-c4ccc(F)nc4)ccc3N)cn2)C1 [Compound I-284]
7.10 | – | Nc1ccc(-c2ccc(F)nc2)cc1NC(=O)c1cnc(N2CC(CO)(CCl)C2)cn1 [Compound I-222]
6.89 | – | C#Cc1ccc(C(=O)Nc2cc(-c3cncs3)ccc2N)nc1 [Compound I-058]
6.77 | – | CC(C)c1cnc(C(=O)Nc2cc(-c3cnn(C)c3)ccc2N)cn1 [Compound I-252]
7.30 | – | COC1CN(c2cnc(C(=O)Nc3cc(-c4ccc(F)nc4)ccc3N)cn2)C1 [Compound I-283]
6.85 | – | COC(=O)c1ccc(C(=O)Nc2cc(-c3ccc(F)nc3)ccc2N)nc1 [Compound I-185]
6.82 | – | Cn1cc(-c2ccc(N)c(NC(=O)c3cnc(N4CCC4)cn3)c2)cn1 [Compound I-238]
6.77 | – | CC(C)(O)c1ccc(C(=O)Nc2cc(-c3ccc(F)nc3)ccc2N)nc1 [Compound I-193]
7.02 | – | Cn1cc(-c2cnc(C(=O)Nc3cc(-c4cccs4)ccc3N)cn2)cn1 [Compound I-007]
7.00 | – | Nc1ccc(-n2ccc(F)c2)cc1NC(=O)c1cnc(N2CCOCC2)cn1 [Compound I-267]
7.05 | – | Nc1ccc(-c2ccc(F)nc2)cc1NC(=O)c1cnc(N2CCC2(CO)CCl)cn1 (centres unmarked) [Compound I-225]

pIC50 [1] | pIC50 (read-out: IC50 (HDAC2)) | Compound
7.10 | – | Nc1ccc(-c2ccc(F)nc2)cc1NC(=O)c1cnc(N2CCCC2)cn1 [Compound I-240]
7.40 | – | CCNc1cnc(C(=O)Nc2cc(-c3ccc(F)nc3)ccc2N)cn1 [Compound I-285]
6.80 | – | Nc1ccc(-c2cncs2)cc1NC(=O)c1ccc2c(n1)CCC2 [Compound I-083]
7.05 | – | CC(=O)Nc1ccc(C(=O)Nc2cc(-c3cnn(C)c3)ccc2N)nc1 [Compound I-265]
7.15 | – | Nc1ccc(-n2ccc(F)c2)cc1NC(=O)c1cnc(N2CCC2)cn1 [Compound I-300]
6.96 | – | Nc1ccc(-c2cncs2)cc1NC(=O)c1cc2ccccc2cn1 [Compound I-066]
7.27 | – | Cn1cc(-c2ccc(C(=O)Nc3cc(-c4cncs4)ccc3N)nc2)nn1 [Compound I-046]
6.92 | – | Nc1ccc(-c2cncs2)cc1NC(=O)c1cc2c(cn1)OCCC2 [Compound I-067]
7.00 | – | Nc1ccc(-c2ccc(F)nc2)cc1NC(=O)c1ccc(N2CCOCC2)nn1 [Compound I-262]
7.21 | – | Cn1cc(-c2cnc(C(=O)Nc3cc(-c4cnco4)ccc3N)cn2)cn1 [Compound I-009]
7.30 | – | CCN(C)c1cnc(C(=O)Nc2cc(-c3ccc(F)nc3)ccc2N)cn1 [Compound I-220]
7.15 | – | Nc1ccc(-c2ccc(F)nc2)cc1NC(=O)c1cnc(N2CCOCC2)cn1 [Compound I-303]
7.30 | – | Nc1ccc(-c2ccc(F)nc2)cc1NC(=O)c1cnc(N2CCCOCC2)cn1 [Compound I-278]
7.03 | – | Cn1cc(-c2cnc(C(=O)Nc3cc(-c4cnco4)ccc3N)cn2)nn1 [Compound I-012]
7.30 | – | Nc1ccc(-c2ccc(F)nc2)cc1NC(=O)c1cnc(N2CC(O)C2)cn1 [Compound I-282]
7.00 | – | Cn1cc(-c2cnc(C(=O)Nc3cc(-n4cccc4)ccc3N)cn2)cn1 [Compound I-013]
